Source: US4622317A, “Treatment of skin over androgenicity using compositions containing pregnenolone” (priority 1985, dated 1986)

What was measured:
[1] = tested on: skin / body of acne patients; settings: cited from earlier work; for skin irritation and peeling: topical application
[2] = tested on: female hamster flank organs; experiment: stimulation of female hamster flank organs by topical DHA; assay type: in vivo; settings: 12 μg, 60 μg, 120 μg to right side, 7 days/week for 6 weeks, female hamsters
From the text: (§1) The effects of hormones and hormonally active substances on sebaceous glands can also be evaluated using the Syrian hamster flank organs as an animal model. The results of experiments using hamsters are valuable inasmuch as they can provide in vivo confirmation of the in vitro experiments like those described above using rat preputial gland. The flank organs, also called the costovertebral spot or the costovertebral organ, are sebaceous structures located on each flank of the animal. Like the sebaceous glands of the human and the preputial gland of the rat they are androgen dependent (Voigt and Hsia, 1973; Gomez and Frost, 1969; Frost and Gomez, 1973).
The organ in the mature male hamster measures approximately 8 mm in diameter, is heavily pigmented and is covered with coarse dark hairs (Voigt and Hsia, 1973). The organ of the female animal is undeveloped, measuring about 2 mm in diameter, lightly pigmented, without dark hairs, and is at times difficult to see. The anatomical and histological changes in this organ in response to androgens have been described by Hamilton and Montagna (1950).
Before testing the anti-androgenic properties of pregnenolone on hamster flank organs and relying on the results, a centrally important question therefore needed to be answered--Could DHA be shown to stimulate growth in the flank organs? […]

[3] = background statement; cited from earlier work
skin = settings: studies by the inventor and other laboratories; cited from earlier work
[4] = tested on: flank organ of female hamsters; settings: topical, 5 days/week for 2 weeks; cited from earlier work
[5] = tested on: 3β-hydroxysteroid dehydrogenase Δ^4-5 -isomerase (3βHSD); experiment: in vitro inhibition of 3βHSD conversion of DHA in rat preputial gland homogenate; assay type: biochemical, rat (female Sprague-Dawley); settings: rat preputial gland homogenate (2 mg protein), 1,2-^3 H-DHA + 100 nmoles DHA, 37° C.; four separate incubations; inhibitor concentration not given
Description: To assess the androgen inhibiting activity of pregnenolone, rat preputial gland was employed to investigate the in vitro androgenic action of DHA. […] A pair of the glands are situated in the prepuce of the rat of either sex weighing between 125-200 mg in an average 200 g rat, being slightly larger in the male animal. The animals employed were female Sprague-Dawley rats, 10-12 weeks old and weighing 225-300 g.
The experimental format, stated broadly, was to excise preputial glands from rats and prepare a homogenate therefrom. […] The metabolites were quantitated by removal from the thin layer plate and counting in a scintillation counter. By determining the extent of metabolite formation, the extent of inhibition of 3βHSD could be correspondingly determined. […]
Experiments were initially conducted to ensure that DHA and its metabolites could be separated chromatographically. […] The position of the steroid can be readily traced with this method. […] Elution and quantitative evaluation of steroids can be effected after removal of the iodine. […] For quantitation the plates were then scraped in 1 cm sections for radioassay of ^3 H in a Packard Tri-Carb liquid scintillation counter. Silica gel H blanks and ^3 H-standards (Packard Instrument Co.) were also counted. […]

[6] = tested on: 3βHSD (female hamster flank organs); experiment: in vivo inhibition of conversion of 1,2-^3 H-DHA to metabolites in flank organs of female hamsters; design: species or system female Syrian Golden Hamster; settings: topical 1200 μg/0.1 ml acetone to each flank organ for 3 days
From the text: as §1
Hamster flank organs were accordingly used to test in vivo the androgenic inhibitory properties of pregnenolone.
Female Syrian Golden Hamsters were used in this experiment. […]
On the afternoon of day 3, an intracardial injection of 1,2-^3 H-DHA (5μCi/0.1 ml saline buffer solution) was given to both experimental groups anesthetized with ether. […] Each organ was then placed in a 16 mm×150 mm test tube containing methanol and was homogenized, extracted and analyzed for steroid metabolites by separating the metabolites using thin layer chromatography as described above, scraping the thus separated metabolites from the thin layer plates, and quantitating using a scintillation counter. […]
Results are shown in FIG. 2 expressed as DPM/mg tissue.

acne vulgaris = assay type: in vivo, human
Description: The following experiment was conducted and is a typical trial. In a double-blind clinical trial 23 patients with acne vulgaris volunteered to participate. Fifteen patients (11 females and 4 males) were given a 1% solution of pregnenolone dissolved in isopropanol containing 1% glycerol, and 8 patients (5 females and 3 males) were given a 1% solution of glycerol in isopropanol. Neither the patients nor the attending dermatologist knew whether or not the dispensed solution contained pregnenolone. The patients were instructed to stop using their previous medications for two weeks and then to apply the given solution to their faces twice daily. They were reexamined biweekly.

[7] = solubility of pregnenolone; assay type: physicochemical
[8] = 1% pregnenolone in isopropanol containing 1% glycerol, twice daily, twelve weeks, 4 of 15 patients

## CC1=C(/C=C/C(C)=C/C=C/C(C)=C\C(=O)O)C(C)(C)CCC1 [Accutane, 13-Cis retinoic acid]
[1]; internal use
  blood lipids and liver toxicity: alters blood lipids and causes liver toxicity

## C[C@]12CC[C@H](O)CC1=CC[C@@H]1[C@@H]2CC[C@]2(C)C(=O)CC[C@@H]12 [DHA, dehydroepiandrosterone]
[2]
  stimulation of flank organs: not only a local stimulation, but stimulation of both flank organs, hence systemic stimulation
[3]
  androgenic / hormonal activity: only weak androgenic activity
skin
  metabolism in the skin: readily metabolized in the skin to form potent androgenic steroids

## C[C@]12CCC(=O)C[C@@H]1CC[C@@H]1[C@@H]2CC[C@]2(C)[C@@H](O)CC[C@@H]12 [DHT, dihydrotestosterone]
[4]
  sebaceous gland growth and pigmentation of flank organ: unilateral stimulation of sebaceous gland growth and pigmentation

## C[C@]12CCC(=O)C=C1CC[C@@H]1[C@@H]2CC[C@]2(C)C(=O)CC[C@@H]12 [androstenedione, Δ^4 -androstenedione]
[4]
  sebaceous gland growth and pigmentation of flank organ: unilateral stimulation of sebaceous gland growth and pigmentation

## C[C@]12CC[C@@H](O)C[C@@H]1CC[C@@H]1[C@@H]2CC[C@]2(C)C(=O)CC[C@@H]12 [androsterone]
[4]
  sebaceous gland growth and pigmentation of flank organ: did not cause flank organ growth or increased pigmentation

## O=C(OOC(=O)c1ccccc1)c1ccccc1 [benzoyl peroxide]
[1]
  skin irritation and peeling: irritates the skin and causes the skin to peel

## C[C@]12CC[C@H](O)C[C@@H]1CC[C@@H]1[C@@H]2CC[C@]2(C)C(=O)CC[C@@H]12 [epiandrosterone]
[4]
  sebaceous gland growth and pigmentation of flank organ: did not cause flank organ growth or increased pigmentation

## C[C@]12CCC(=O)C=C1CC[C@@H]1[C@@H]2CC[C@@]2(C)[C@H]1CC[C@]2(C)O [methyltestosterone]
[4]
  sebaceous gland growth and pigmentation of flank organ: unilateral stimulation of sebaceous gland growth and pigmentation

## CC(=O)[C@H]1CC[C@H]2[C@@H]3CC=C4C[C@@H](O)CC[C@]4(C)[C@H]3CC[C@]12C [pregnenolone, Δ^5-pregnene-3β-ol-20-one]
[5]
  inhibition of 3βHSD for DHA (percentage of total Δ^4 -3-keto product formed in absence of inhibitor): 91-92%
[6]; DHA-stimulated, 1 hour after intracardial ^3 H-DHA (5 μCi)
  total metabolites converted from 1,2-^3 H-DHA, treated versus control: Significant differences (P<0.01)
[6]; DPM/mg tissue in FIG. 2
  formation of testosterone, DHT and androstanediol, control versus treated: Control hamsters, not treated with inhibitor, show greater formation of testosterone, DHT and androstanediol
Acne vulgaris; 1% pregnenolone in isopropanol containing 1% glycerol, twice daily, twelve weeks, 2 of 15 patients
  patients with reduction of oiliness: 13%
Acne vulgaris; [8]
  patients with no change in lesions or oiliness: 26%
  patients with slight reduction of the number of lesions and a reduction in the oiliness of the skin: 26%
Acne vulgaris; 1% pregnenolone in isopropanol containing 1% glycerol, twice daily, twelve weeks, 5 of 15 patients
  patients with definite improvement, with reduction in the size and number of lesions: 33%
Acne vulgaris; conclusion of the trial, continued use
  beneficial effect in acne; prevention of new lesions: beneficial effect in the treatment of acne, and that continued use of pregnenolone prevents the development of new lesions
Acne vulgaris; human, in vivo
  irritation or discomfort caused by topical application: no complaint of irritation or discomfort
Acne vulgaris; patients who had used other medications previously
  efficacy and acceptability compared with previous medications (patients' claims): more effective and more acceptable
[7]; alcohols, such as isopropanol or mixtures with longer (C4 -C10) alkane or alkene chains
  solubility in alcohols: soluble
[7]; water
  solubility in water: insoluble in water
[3]
  androgenic / hormonal activity: no known hormonal activity of its own

## CC(=O)[C@H]1CC[C@H]2[C@@H]3CCC4=CC(=O)CC[C@]4(C)[C@H]3CC[C@]12C [progesterone]
[4]
  sebaceous gland growth and pigmentation of flank organ: did not cause flank organ growth or increased pigmentation

## CC1=C(/C=C/C(C)=C/C=C/C(C)=C/C(=O)O)C(C)(C)CCC1 [retinoic acid]
[1]
  skin irritation and peeling: irritates the skin and causes the skin to peel

## C[C@]12CC[C@H]3[C@@H](CCC4=CC(=O)CC[C@@]43C)[C@@H]1CC[C@@H]2O [testosterone]
[4]
  sebaceous gland growth and pigmentation of flank organ: unilateral stimulation of sebaceous gland growth and pigmentation
